One may read the inhibition as the share of the control response that was lost under treatment.

One assay relates to SW480. Nature of the assay: Growth inhibition of human SW480 cells at 10 uM after 24 hrs by MTS assay relative to control. The assay is classed as functional. To be noted: SW480, 24 h, read-out: GI. Background: Tetrazolium dyes change colour on reduction, which living cells bring about.
Assay [1] addresses Mushroom tyrosinase (Agaricus bisporus) (UniProt O42713+Q00024+C7FF04+C7FF05). The assay is described as follows: Inhibition of mushroom tyrosinase at 10 uM using L-tyrosine as substrate incubated for 15 mins followed by substrate addition relative to control.
The test system of the next assay is HepG2. Nature of the assay: Growth inhibition of human HepG2 cells at 10 uM after 24 hrs by MTS assay relative to control. The format is functional. Particulars: HepG2, 24 h, read-out: GI.
The next assay deals with MCF7. The assay is described as follows: Growth inhibition of human MCF7 cells at 10 uM after 24 hrs by MTS assay relative to control. The format is functional. Particulars: MCF7, 24 h, read-out: GI.
Assay [2] deals with T1, Tyrosine-protein phosphatase non-receptor type 1 (Homo sapiens) (UniProt P18031).
T1 sequence (whole entry): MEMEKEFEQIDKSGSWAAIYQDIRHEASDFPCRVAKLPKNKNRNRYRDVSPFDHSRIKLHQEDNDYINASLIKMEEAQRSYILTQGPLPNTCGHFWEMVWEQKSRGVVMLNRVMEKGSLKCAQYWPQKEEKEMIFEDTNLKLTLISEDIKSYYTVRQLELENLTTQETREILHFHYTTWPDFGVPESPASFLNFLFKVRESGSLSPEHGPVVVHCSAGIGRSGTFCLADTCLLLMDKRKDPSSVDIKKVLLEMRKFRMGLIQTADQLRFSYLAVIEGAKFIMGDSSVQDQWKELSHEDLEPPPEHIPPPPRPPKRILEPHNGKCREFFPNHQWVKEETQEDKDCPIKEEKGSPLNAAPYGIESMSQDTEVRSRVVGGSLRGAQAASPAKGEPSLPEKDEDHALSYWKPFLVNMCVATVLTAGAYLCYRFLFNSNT
Nature of the assay: Inhibition of recombinant human PTP1B using p-nitrophenyl phosphate as substrate at 10 uM after 30 mins relative to control.

For a further assay, the species on record is Homo sapiens. The assay is described as follows: Inhibition of LPS-induced NF-kappaB transcription (unknown origin) expressed in human SW480 cells at 10 uM by luciferase reporter gene assay. The format is cell-based. (A reporter such as luciferase makes a cellular process visible.)
A further assay concerns RAW264.7. Nature of the assay: Antiinflammatory activity in mouse RAW264.7 cells assessed as inhibition of LPS-induced NO production at 10 uM after 24 hrs by Griess reagent based assay relative to control. The assay is classed as functional. Particulars: RAW264.7, 24 h. A general note: Griess reagent forms a coloured azo dye with nitrite.

With `CC(C)=CCc1c(O)ccc(C(=O)/C=C/c2ccc(O)c(O)c2)c1O`, the inhibition of growth at 10 µM with SW480 is 11%; in the assay with HepG2 it was 1%; in the assay with MCF7, 12%. Besides, the inhibition worked out at 14% in assay [1], 16% in assay [2] and 14% in the assay listed under Homo sapiens. Further, the inhibition at 10 µM in the assay with RAW264.7 was 11%.

Take `CC(C)=CCc1c(O)ccc2c1oc1c3ccc(O)cc3oc(=O)c21` [ISOSOJAGOL]: the values for the inhibition of growth at 10 µM in the assay with SW480, in the assay on HepG2 and in the assay on MCF7 were 26%, 23% and 12%, respectively. The inhibition came out at 11% in assay [1], 21% in assay [2] and 28% in the assay filed under Homo sapiens. Besides, the inhibition at 10 µM in the assay with RAW264.7 turned out to be 15%.

Consider `O=C1C[C@@H](c2cc(O)cc(O)c2)Oc2cc(O)ccc21`, for which the inhibition of growth at 10 µM in the assay with SW480 is 4%; in the assay on HepG2 it was 0%; in the assay on MCF7, 13%. The inhibition in assay [1] came to 12%; in assay [2], 2%; in the assay listed under Homo sapiens, 1%. In the assay on RAW264.7, the inhibition at 10 µM worked out at 15%.

As to `CC1(C)C=Cc2cc(-c3coc4cc(O)cc(O)c4c3=O)ccc2O1`, the inhibition of growth at 10 µM with SW480 was 13 to 70%; in the assay on HepG2, 11%; with MCF7, 2 to 23%. Moreover, the inhibition in assay [1] was found to be 14%; in assay [2] it was 27%; in the assay filed under Homo sapiens, 27%. In addition, the inhibition at 10 µM in the assay with RAW264.7 amounted to 10%.

For the compound `O=C(/C=C/c1ccc(O)cc1)c1ccc(O)cc1O` [ISOLIQUIRITIGENIN], the inhibition of growth at 10 µM worked out at 16% in the assay with SW480, 0% in the assay with HepG2 and 0% in the assay with MCF7. Also, the values for the inhibition (in assay [1]; in assay [2]; in the assay filed under Homo sapiens) were 12%, 48% and 6%, respectively. For the same compound, the inhibition at 10 µM with RAW264.7 was determined as 14%.

As for `CC1(C)C=Cc2c(O)ccc([C@@H]3COc4cc(O)cc(O)c4C3=O)c2O1`, the inhibition of growth at 10 µM was determined as 8% with SW480, 6% in the assay on HepG2 and 13% with MCF7. In addition, the inhibition was 9% in assay [1], 1% in assay [2] and 24% in the assay filed under Homo sapiens. In addition, the inhibition at 10 µM in the assay with RAW264.7 was determined as 2%.

Take `CC(C)=CCc1c(O)ccc(-c2cc3ccc(O)cc3o2)c1O` [2'-O-DEMETHYLBIDWILLOL B]: the inhibition of growth at 10 µM in the assay on SW480 amounted to 36%; in the assay on HepG2, 8%; with MCF7 it was 16%. Also, the inhibition in assay [1] is 12%; in assay [2], 24%; in the assay filed under Homo sapiens, 42%. Besides, the inhibition at 10 µM in the assay with RAW264.7 turned out to be 32%.

`CC1(C)[C@@H](OC=O)CC[C@]2(C)[C@H]3C(=O)C=C4[C@@H]5C[C@@](C)(C(=O)O)CC[C@]5(C)CC[C@@]4(C)[C@]3(C)CC[C@@H]12`: the values for the inhibition of growth at 10 µM with SW480, with HepG2 and in the assay on MCF7 were 3%, 13% and 17%, respectively. Also, the results for the inhibition (in assay [1]; in assay [2]; in the assay filed under Homo sapiens) were 0%, 3% and 0%, respectively. For the same compound, the inhibition at 10 µM in the assay on RAW264.7 came out at 2%.

On to `CC(C)=CCc1cc2c(=O)cc(-c3ccc(O)cc3)oc2cc1O` [LICOFLAVANONE A], for which the figures for the inhibition of growth at 10 µM with SW480, with HepG2 and with MCF7 were 30%, 5% and 0%, respectively. Besides, the inhibition in assay [1] came to 17%; in assay [2], 79%; in the assay listed under Homo sapiens, 7%. In addition, the inhibition at 10 µM in the assay with RAW264.7 turned out to be 11%.

As for `COc1c(/C=C/C(=O)c2ccc(O)cc2)ccc(O)c1CC=C(C)C`, the inhibition of growth at 10 µM with SW480 is 25%; in the assay on HepG2 it was 22%; with MCF7 it was 26%. For the same compound, the inhibition in assay [1] was found to be 5%; in assay [2] it was 20%; in the assay listed under Homo sapiens it was 9%. Also, the inhibition at 10 µM with RAW264.7 stood at 1%.

`COc1ccc(-c2coc3cc(O)ccc3c2=O)cc1` [FORMONONETIN]: the inhibition of growth at 10 µM with SW480 amounted to 4%; in the assay on HepG2, 0%; in the assay on MCF7, 2%. The inhibition in assay [1] came to 10%; in assay [2], 33%; in the assay filed under Homo sapiens, 3%. Moreover, the inhibition at 10 µM in the assay on RAW264.7 was found to be 0%.

`O=c1c(-c2ccc(O)c(O)c2)coc2cc(O)ccc12`: the inhibition of growth at 10 µM was 43% with SW480, 3% with HepG2 and 0% in the assay on MCF7. Besides, the inhibition was found to be 9% in assay [1], 28% in assay [2] and 0% in the assay listed under Homo sapiens. Moreover, in the assay on RAW264.7, the inhibition at 10 µM is 0%.

`CC(C)=CCc1cc([C@@H]2CC(=O)c3ccc(O)cc3O2)cc2c1OC(C)(C)C=C2` [ABYSSINONES III]: the inhibition of growth at 10 µM is 26% with SW480, 9% in the assay on HepG2 and 0% in the assay with MCF7. For the same compound, the results for the inhibition (in assay [1]; in assay [2]; in the assay listed under Homo sapiens) were 6%, 43% and 28%, respectively. Moreover, the inhibition at 10 µM in the assay on RAW264.7 came out at 17%.

As to `CC(C)=CCc1c(O)cc2occ(-c3ccc4c(c3)C=CC(C)(C)O4)c(=O)c2c1O` [ISOCHANDALON], the figures for the inhibition of growth at 10 µM with SW480, in the assay on HepG2 and in the assay with MCF7 were 58 to 81%, 7% and 73%, respectively. The inhibition in assay [1] was 3%; in assay [2], 94%; in the assay listed under Homo sapiens, 3%. Besides, the inhibition at 10 µM with RAW264.7 stood at 0%.

For the compound `O=C(/C=C/c1ccc(O)c(O)c1)c1ccc(O)c(O)c1`, the inhibition of growth at 10 µM with SW480 worked out at 10%; in the assay with HepG2 it was 8%; in the assay with MCF7 it was 5%. Further, the inhibition in assay [1] turned out to be 16%; in assay [2], 1%; in the assay listed under Homo sapiens it was 13%. Also, the inhibition at 10 µM with RAW264.7 worked out at 1%.

Turning to `CC(C)=CCc1cc2c(=O)cc(-c3ccc4c(c3)C=CC(C)(C)O4)oc2cc1O`, the inhibition of growth at 10 µM in the assay on SW480 stood at 51%; in the assay with HepG2, 11%; in the assay on MCF7, 7%. Also, the results for the inhibition (in assay [1]; in assay [2]; in the assay filed under Homo sapiens) were 9%, 33% and 3%, respectively. Further, in the assay with RAW264.7, the inhibition at 10 µM worked out at 1%.

`CC(C)=CCc1c(O)cc2occ(-c3ccc(O)cc3)c(=O)c2c1O` [WIGHTEONE]: the inhibition of growth at 10 µM turned out to be 34% with SW480, 6% with HepG2 and 17% with MCF7. Also, the figures for the inhibition (in assay [1]; in assay [2]; in the assay listed under Homo sapiens) were 15%, 19% and 11%, respectively. In the assay with RAW264.7, the inhibition at 10 µM worked out at 0%.

Regarding `COc1ccc2c(c1)OC[C@H]1c3ccc(O)cc3O[C@@H]21`, the inhibition of growth at 10 µM in the assay with SW480 was found to be 17%; with HepG2, 5%; with MCF7 it was 20%. In addition, the values for the inhibition (in assay [1]; in assay [2]; in the assay filed under Homo sapiens) were 31%, 2% and 0%, respectively. Moreover, the inhibition at 10 µM with RAW264.7 was 3%.

The values above are taken from ChEMBL document CHEMBL4033705, “Screening for bioactive natural products from a 67-compound library of Glycyrrhiza inflata” (Bioorg Med Chem, 2017).
